This test concerns the target T1, β-secretase(BACE) (Homo sapiens, UniProt P56817).
T1 construct: purchased Panvera
As to the kind of experiment: BACE FS1% Inhibition Assay. As to conditions: FS1 substrate; for % Inhibition (FS) 0.3 μM: 0.3 μM test compound; for % Inhibition (FS) 1 μM: 1 μM test compound; for % Inhibition (FS) 3 μM: 3 μM test compound. Type of test: biochemical. Here is the method: BACE FS1% Inhibition Assay The following reagents were used in this assay: sodium acetate, PEG8000 (Sigma), DMSO, HEPES, FS1 substrate [[…]] […] The FS1-substrate stock solution was prepared in DMSO as a 10 mg/mL solution. The FS1-substrate working solution was prepared by diluting the 10 mg/mL stock solution with substrate assay buffer to a final concentration of 300 μg/mL. The β-secretase (BACE) working solution was prepared by diluting a 0.83 mg/mL BACE stock solution with enzyme assay buffer to a final concentration of 4 μg/mL. Test compounds were dissolved in DMSO to 10 mM. […] The screening procedure for this assay was as follows: 15 μL of BACE working solution was pipetted into each well of a 96-well plate. To each well was then pipetted 2 μL of test compound at the selected concentration. Test compound and BACE were then mixed with a pipettor and incubated for 20 min at room temperature. To each well was then added 10 μL of the FS1 substrate working solution. The plates were then incubated for 1 hour at room temperature. […] The procedure for the blank was as follows. 15 μL of assay buffer was pipetted into each well to be used as a blank control. To each well was then added 2 μL of vehicle and 10 μL of FS1-substrate working solution. The plates were then incubated for 1 hour at room temperature. […] The procedure for the positive control was as follows: 15 μL of BACE working solution was pipetted into each well to be used as a positive control. To each well was then pipetted 2 μL of vehicle. Vehicle and BACE were then mixed with a pipettor and incubated for 20 min at room temperature. To each well was then added 10 μL of the FS1 substrate working solution. The plates were then incubated for 1 hour at room temperature. […] For test compounds, % inhibition was determined at each concentration as follows: [formula]

The text below walks through data of patent publication US8383637B2, “2-amino-quinazoline derivatives useful as inhibitors of β-secretase (BACE)” (Jansssen Pharmaceutica N.V., priority 2004, dated 2013).

T1 sequence (P56817 46-501): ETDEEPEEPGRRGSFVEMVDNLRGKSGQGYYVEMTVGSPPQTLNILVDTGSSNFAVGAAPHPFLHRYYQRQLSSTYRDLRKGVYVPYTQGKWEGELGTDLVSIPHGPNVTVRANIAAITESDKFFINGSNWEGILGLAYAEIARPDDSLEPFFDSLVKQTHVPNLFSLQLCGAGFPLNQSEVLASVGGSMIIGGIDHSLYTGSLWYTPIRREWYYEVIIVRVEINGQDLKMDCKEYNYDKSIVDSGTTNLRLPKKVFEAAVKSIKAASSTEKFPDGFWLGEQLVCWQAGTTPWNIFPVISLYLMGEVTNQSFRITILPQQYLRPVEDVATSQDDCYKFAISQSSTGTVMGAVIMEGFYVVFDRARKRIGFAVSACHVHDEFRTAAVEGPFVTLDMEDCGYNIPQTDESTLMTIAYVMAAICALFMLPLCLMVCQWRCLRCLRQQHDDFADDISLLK

In the case of `NC1=Nc2ccc(Oc3ccccc3)cc2CN1Cc1cccc(C(=O)NCCc2ccc(S(N)(=O)=O)cc2)c1` [Compound 188], the “% Inhibition (FS) 0.3 μM” value is <30%, the “% Inhibition (FS) 1 μM” value is on record as <30% and the “% Inhibition (FS) 3 μM” value was <30%.
On to `CN(C)c1ccc(C(=O)NCCN2Cc3cc(Oc4ccccc4)ccc3N=C2N)cc1` [Compound 189], for which the “% Inhibition (FS) 0.3 μM” value is given as <30%, the “% Inhibition (FS) 1 μM” value is <30% and the “% Inhibition (FS) 3 μM” value was <30%.
For the compound `CC(C)CC(=O)NCCN1Cc2cc(Oc3ccccc3)ccc2N=C1N` [Compound 190], the “% Inhibition (FS) 0.3 μM” value is reported as 51%, the “% Inhibition (FS) 1 μM” value was 86% and the “% Inhibition (FS) 3 μM” value was 101%.
For the compound `CC1CCC(C(=O)NCCN2Cc3cc(Oc4ccccc4)ccc3N=C2N)CC1` (stereo not drawn) [Compound 191], the “% Inhibition (FS) 0.3 μM” value is on record as <30%, the “% Inhibition (FS) 1 μM” value is given as 46% and the “% Inhibition (FS) 3 μM” value is on record as 88%.
Turning to `NC1=Nc2ccc(Oc3ccccc3)cc2CN1Cc1cccc(C(=O)N2CCC3CCCCC3C2)c1` (stereo not drawn) [Compound 193], the “% Inhibition (FS) 0.3 μM” value was <30%, the “% Inhibition (FS) 1 μM” value is 34% and the “% Inhibition (FS) 3 μM” value was found to be 67%.
Taken in the same sequence, the figures for `CCCCCC1CC2(C(=O)NCCN3Cc4cc(Oc5ccccc5)ccc4N=C3N)CCC1CC2` (stereo not drawn) [Compound 194] were <30%, 42% and 38%.
Taken in the same sequence, the figures for `NC1=Nc2ccc(Oc3ccccc3)cc2CN1CCNC(=O)c1ccc(-c2ccccc2)cc1` [Compound 195] were <30%, <30% and <30%.
Taken in the same sequence, the figures for `CCCN(CC1CC1)C(=O)c1cccc(CN2Cc3cc(Oc4ccccc4)ccc3N=C2N)c1` [Compound 197] were <30%, <30% and 32%.
On to `CCCCC(CC)CN(CC(CC)CCCC)C(=O)c1cccc(CN2Cc3cc(Oc4ccccc4)ccc3N=C2N)c1` (stereo not drawn) [Compound 198], for which the “% Inhibition (FS) 0.3 μM” value was <30%, the “% Inhibition (FS) 1 μM” value was <30% and the “% Inhibition (FS) 3 μM” value was <30%.
In the case of `CN(C(=O)CC(C1CCCCC1)N1Cc2cc(Oc3ccccc3)ccc2N=C1N)C1CCCCC1` (stereo not drawn) [Compound 199], the “% Inhibition (FS) 0.3 μM” value is listed as <30%, the “% Inhibition (FS) 1 μM” value is listed as <30% and the “% Inhibition (FS) 3 μM” value is on record as 82%.
Turning to `CC(C)N(C(=O)CC(C1CCCCC1)N1Cc2cc(Oc3ccccc3)ccc2N=C1N)C1CCCCC1` (stereo not drawn) [Compound 200], the “% Inhibition (FS) 0.3 μM” value was <30%, the “% Inhibition (FS) 1 μM” value is <30% and the “% Inhibition (FS) 3 μM” value is <30%.
Consider `CC(C)C(CC(=O)N(C(C)C)C1CCCCC1)N1Cc2cc(Oc3ccccc3)ccc2N=C1N` (stereo not drawn) [Compound 202], for which the “% Inhibition (FS) 0.3 μM” value was <30%, the “% Inhibition (FS) 1 μM” value is on record as <30% and the “% Inhibition (FS) 3 μM” value was <30%.
For `NC1=Nc2ccc(Oc3ccccc3)cc2CN1CCNC(=O)C(c1ccccc1)c1ccccc1` [Compound 207], the “% Inhibition (FS) 0.3 μM” value worked out at 48%, the “% Inhibition (FS) 1 μM” value turned out to be 90% and the “% Inhibition (FS) 3 μM” value amounted to 108%.
Consider `CCCCCCCCC(CCC(=O)NC1CCCCCC1)N1Cc2cc(Oc3ccccc3)ccc2N=C1N` (stereo not drawn) [Compound 208], for which the “% Inhibition (FS) 0.3 μM” value is recorded as <30%, the “% Inhibition (FS) 1 μM” value is recorded as <30% and the “% Inhibition (FS) 3 μM” value amounted to 67%.
Consider `CCCCCCCCC(CCC(=O)N(C)C1CCCCC1)N1Cc2cc(Oc3ccccc3)ccc2N=C1N` (stereo not drawn) [Compound 210], for which the “% Inhibition (FS) 0.3 μM” value is <30%, the “% Inhibition (FS) 1 μM” value is given as <30% and the “% Inhibition (FS) 3 μM” value was <30%.
Regarding `NC1=Nc2ccc(Oc3ccccc3)cc2CN1Cc1cccc(C(=O)N2CCCC3CCCCC32)c1` (stereo not drawn) [Compound 212], the “% Inhibition (FS) 0.3 μM” value is <30%, the “% Inhibition (FS) 1 μM” value was <30% and the “% Inhibition (FS) 3 μM” value is 32%.
